Source: article PMC6446070, “Discovery of novel isoflavone derivatives as AChE/BuChE dual-targeted inhibitors: synthesis, biological evaluation and molecular modelling” (Journal of Enzyme Inhibition and Medicinal Chemistry, 2017)
Read-outs that look alike come from different tables or passages of the source.

Tests used:
[1] = biological target: T1, AChE (Rattus norvegicus, UniProt P37136); test: biochemical; conditions: for inhibition at 50 µM: read-out: Inhibition % at 50 μM AChE
T1 construct: AChE (0.5 U/mg) was extracted from rat cortex; from tissue; host or cells: rat cortex
T1 sequence (P37136 32-614): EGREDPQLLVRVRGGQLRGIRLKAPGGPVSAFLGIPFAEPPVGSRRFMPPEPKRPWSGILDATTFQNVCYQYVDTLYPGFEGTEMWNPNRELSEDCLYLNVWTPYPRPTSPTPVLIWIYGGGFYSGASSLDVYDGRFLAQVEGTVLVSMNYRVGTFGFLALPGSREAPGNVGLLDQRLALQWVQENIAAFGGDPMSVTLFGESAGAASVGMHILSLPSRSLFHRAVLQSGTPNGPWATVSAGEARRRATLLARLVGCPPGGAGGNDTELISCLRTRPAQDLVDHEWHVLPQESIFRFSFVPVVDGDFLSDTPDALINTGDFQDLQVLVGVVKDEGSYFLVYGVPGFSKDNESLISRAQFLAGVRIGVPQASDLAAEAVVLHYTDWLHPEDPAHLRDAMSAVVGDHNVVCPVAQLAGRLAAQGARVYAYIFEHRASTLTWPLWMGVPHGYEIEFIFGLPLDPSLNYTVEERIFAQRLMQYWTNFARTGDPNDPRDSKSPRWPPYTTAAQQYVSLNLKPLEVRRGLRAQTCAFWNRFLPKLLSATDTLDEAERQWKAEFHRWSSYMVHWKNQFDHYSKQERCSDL
Method: (§1) To measure in vitro AChE/BuChE activity, modified Ellman's method[27–30] was performed using a 96-well plate reader (BioTek ELx808). AChE (0.5 U/mg) was extracted from rat cortex while BuChE (3.4 U/mg) was obtained from human plasma. Each well contained 50 μl potassium phosphate buffer (KH2PO4/K2HPO4, 0.1 M, pH 8.0), 25 μl test compounds and 25 μl enzyme. […] They were pre-incubated for 60 min at 37 °C, and then 125 μl 5,5′-dithiobis-2-nitrobenzoic acid (DNTB, 3 mM in buffer) was added. […] A control experiment was performed under the same condition without any inhibitor and the blank contained buffer, water, DTNB and substrate. The described method was also performed for BuChE bioassay.

[2] = biological target: T2, BuChE (Homo sapiens, UniProt P06276); test: biochemical; conditions: for inhibition at 50 µM: read-out: Inhibition % at 50 μM BuChE
T2 construct: BuChE (3.4 U/mg) was obtained from human plasma; from tissue; host or cells: human plasma
T2 sequence (P06276 29-602): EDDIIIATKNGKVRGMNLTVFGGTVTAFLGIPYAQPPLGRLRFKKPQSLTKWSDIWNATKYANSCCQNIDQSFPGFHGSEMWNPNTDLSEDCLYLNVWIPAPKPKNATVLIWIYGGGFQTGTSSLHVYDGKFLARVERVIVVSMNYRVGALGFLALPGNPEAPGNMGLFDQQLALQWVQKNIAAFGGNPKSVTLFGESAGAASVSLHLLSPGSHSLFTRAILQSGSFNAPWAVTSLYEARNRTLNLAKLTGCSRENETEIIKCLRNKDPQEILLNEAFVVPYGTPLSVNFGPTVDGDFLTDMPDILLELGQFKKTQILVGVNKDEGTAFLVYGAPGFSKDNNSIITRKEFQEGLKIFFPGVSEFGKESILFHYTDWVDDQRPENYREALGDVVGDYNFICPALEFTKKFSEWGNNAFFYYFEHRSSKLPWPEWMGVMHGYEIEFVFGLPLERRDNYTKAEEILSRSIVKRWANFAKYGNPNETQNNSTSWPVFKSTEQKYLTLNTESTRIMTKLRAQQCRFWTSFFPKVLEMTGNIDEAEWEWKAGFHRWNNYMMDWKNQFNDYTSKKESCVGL
Method: as §1

[3] = 50 μM compound, AChE extracted from rat cortex, pre-incubated 60 min at 37 °C
[4] = 50 μM compound, BuChE from human plasma, pre-incubated 60 min at 37 °C
[5] = BuChE from human plasma, read-out: IC50 (μM) BuChE

| Structure (SMILES) | IC50 [2, 5] [µM] | inhibition at 50 µM [1, 3] [%] | inhibition at 50 µM [2, 4] [%] | further results |
| --- | --- | --- | --- | --- |
| COc1ccc(-c2coc3cc(OCCOC(=O)N4CCCCC4)ccc3c2=O)cc1 [compound 19, 2-((3-(4-Methoxyphenyl)-4-oxo-4H-chromen-7-yl)oxy)ethyl piperidine-1-carboxylate] |  |  |  | inhibition at 50 µM [1]: -11.6%; IC50 [2]: 9.59 µM; inhibition at 50 µM [2]: 53% |
| O=c1c(-c2ccc(O)cc2)coc2cc(OCCN3CCCC3)ccc12 [compound 15, 3-(4-Hyroxyphenyl)-7-(2-(pyrrolidin-1-yl)ethoxy)-4H-chromen-4-one] | 7.19 |  |  | Inhibition % at 50 μM AChE [1, 3]: 75.22%; Inhibition % at 50 μM BuChE [2, 4]: 99.88% |
| C#CCNCCOc1ccc2c(=O)c(-c3ccc(OC)cc3)coc2c1 [compound 12, 3-(4-Methoxyphenyl)-7-(2-(prop-2-yn-1-ylamino)ethoxy)-4H-chromen-4-one] |  | 5.47 | -16.9 |  |
| C#CCNC(=O)OCCOc1ccc2c(=O)c(-c3ccc(OC)cc3)coc2c1 [compound 20, 2-((3-(4-Methoxyphenyl)-4-oxo-4H-chromen-7-yl)oxy)ethyl prop-2-yn-1-ylc-arbamate] |  |  |  | Inhibition % at 50 μM AChE [1, 3]: −4.84%; Inhibition % at 50 μM BuChE [2, 4]: −5.49% |
| COc1ccc(-c2coc3cc(OCCNC45CC6C[C@@](C)(C4)C[C@](C)(C6)C5)ccc3c2=O)cc1 [compound 13, 7-(2-(((3 R,5 S,7r)-3,5-dimethyladamantan-1-yl)amino)ethoxy)-3-(4-methoxyphenyl)-4H-chromen-4-one] |  |  |  | Inhibition % at 50 μM AChE [1, 3]: 17.61%; Inhibition % at 50 μM BuChE [2, 4]: −6.62% |
| CCN(C)CCOc1ccc2c(=O)c(-c3ccc(OC)cc3)coc2c1 [compound 4, 7-(2-(Ethyl(methyl)amino)ethoxy)-3-(4-methoxyphenyl)-4H-chromen-4-one] |  | 58.7 | 84.1 |  |
| CCN(C)CCCCOc1ccc2c(=O)c(-c3ccc(OC)cc3)coc2c1 [compound 6, 7-(4-(Ethyl(methyl)amino)butoxy)-3-(4-methoxyphenyl)-4H-chromen-4-one] |  | 63.8 | 94.8 |  |
| COc1ccc(-c2coc3cc(OCCN4CCCCC4)cc(O)c3c2=O)cc1 [compound 1, 5-Hydroxy-3-(4-mehtoxyphenyl)-7-(2-(piperidin-1-yl)ethoxy)-4H-chromen-4-one] | 4.12 |  |  | Inhibition % at 50 μM AChE [1, 3]: 71.10%; IC50 ([1]; AChE extracted from rat cortex): 10.3 µM; Inhibition % at 50 μM BuChE [2, 4]: 95.74% |
| CCN(C)CCCOc1ccc2c(=O)c(-c3ccc(OC)cc3)coc2c1 [compound 5, 7-(3-(Ethyl(methyl)amino)propoxy)-3-(4-methoxyphenyl)-4H-chromen-4-one] |  | 25.4 | 91.3 |  |
| COc1ccc(-c2coc3cc(OCCCCN4CCCCC4)ccc3c2=O)cc1 [compound 3, 3-(4-Methoxyphenyl)-7-(4-(piperidin-1-yl)butoxy)-4-H-chromen-4-one] | 11.1 |  |  | Inhibition % at 50 μM AChE [1, 3]: 85.65%; IC50 ([1]; AChE extracted from rat cortex): 46.4 µM; Inhibition % at 50 μM BuChE [2, 4]: 98.11% |
| COc1ccc(-c2coc3cc(OCCCCNCCc4c[nH]c5ccc(OC)cc45)ccc3c2=O)cc1 [compound 9, 7-(4((2-(5-Methoxy-1H-indol-3-yl)ethyl)amino)butoxy)-3-(4-methoxyphenyl)-4H-chromen-4-one] |  | 0.72 | 37.9 |  |
| COc1ccc(-c2coc3cc(OCCN(C)Cc4ccccc4)ccc3c2=O)cc1 [compound 10, 7-(2-(Benzyl(methyl)amino)ethoxy)-3-(4-methoxyphenyl)-4H-chromen-4-one] |  | 3.34 | 2.72 |  |
| COc1ccc(-c2coc3cc(OCCNCCc4c[nH]c5ccc(OC)cc45)ccc3c2=O)cc1 [compound 7, 7-(2-((2-(5-Methoxy-1H-indol-3-yl)ethyl)amino)ethoxy)-3-(4-methoxyphenyl)-4H-chr-omen-4-one] |  |  |  | Inhibition % at 50 μM AChE [1, 3]: 3.68%; Inhibition % at 50 μM BuChE [2, 4]: 45.74% |
| COc1ccc(-c2coc3cc(OCC(=O)N4CCCCC4)ccc3c2=O)cc1 [compound 17, 3-(4-Methoxyphenyl)-7-(2-oxo-2-(piperidin-1-yl)ethoxy)-4H-chromen4-one] |  | 0.54 | -2.83 |  |
| COc1ccc(-c2coc3cc(OCCN(Cc4ccccc4)Cc4ccccc4)ccc3c2=O)cc1 [compound 11, 7-(2-(Dibenzylamino)ethoxy)-3-(4-methoxyphenyl)-4H-chromen-4-one] |  | -6.27 | -18.5 |  |
| COc1ccc(-c2coc3cc(OCCCNCCc4c[nH]c5ccc(OC)cc45)ccc3c2=O)cc1 [compound 8, 7-(3-((2-(5-Methoxy-1H-indol-3-yl)ethyl)amino)propoxy)-3-(4-methoxyphenyl)-4H-chromen-4-one] | 15.6 | 2.42 | 60.6 |  |
| COc1ccc(-c2coc3cc(OCCCN4CCCCC4)ccc3c2=O)cc1 [compound 2, 3-(4-Methoxyphenyl)-7-(3-(piperidin-1-yl)propoxy)-4H-chromen-4-one] | 23.2 | 28.3 | 97 |  |
| COc1ccc(-c2coc3cc(OCCC(=O)N4CCCCC4)ccc3c2=O)cc1 [compound 18, 3-(4-Methoxyphenyl)-7-(3-oxo-3-(piperidin-1-yl)propoxy)-4H-chromen-4-one] |  | -2.36 | 5.59 |  |
| O=c1c(-c2ccc(OCCN3CCCCC3)cc2)coc2cc(OCCN3CCCCC3)ccc12 [compound 16, 7-(2-(Piperidin-1-yl)ethoxy)-3-(4-(2-(piperidin-1-yl)ethoxy)phenyl)-4H-chrom en-4-one] | 5.92 | 100 | 99.7 | IC50 ([1]; AChE extracted from rat cortex): 4.6 µM |
| COc1ccc(-c2coc3cc(OCCN4CCCCC4C)ccc3c2=O)cc1 (stereo not shown) [G] | 3.37 |  |  | IC50 ([1]; AChE extracted from rat cortex): 1.47 µM |
| CC(C)NP(=O)(NC(C)C)OP(=O)(NC(C)C)NC(C)C [Iso-OMPA, tetraisopropyl pyrophosphoramide, reference compound] |  |  |  | inhibition at 50 µM [2]: 94.3% |
| O=c1c(-c2ccc(O)cc2)coc2cc(OCCN3CCCCC3)ccc12 [compound 14, 3-(4-Hydroxyphenyl)-7-(2-(piperidin-1-yl)ethoxy)-4H-chromen-4-one] | 7.66 | 79.4 | 99.9 | IC50 ([1]; AChE extracted from rat cortex): 9.75 µM |
